Test results taken from paper PMC3072462 (Journal of medicinal chemistry, 2011).
Where “and” joins values, the source holds several entries; their conditions need not be identical. Equal values may be shown once. Read-outs that look alike come from different tables or passages of the source.

Assays:
HIV IN mutant Y143R [1] = conditions: values from two independent experiments
[2] = biological target: T1, recombinant HIV-1 IN (ST) (Human immunodeficiency virus type 1 group M subtype B, UniProt P04585); experiment: In vitro integrase catalytic gel assay, strand transfer; format: biochemical; conditions: ST; 4 vs 11
[3] = biological target: T2, recombinant HIV-1 IN (3′P) (Human immunodeficiency virus type 1 group M subtype B, UniProt P04585); conditions: read-out: IN IC50 3′P, gel assay; cited from earlier work
HIV-1IIIB [4] = conditions: HIV-1IIIB in CEM-SS cells, cited from earlier work
CEM-SS cells = conditions: single concentration 10 μM; cited from earlier work
HIV IN mutant Y143R [5] = conditions: values from two independent experiments; cited from earlier work
[6] = system: raltegravir-resistant HIV-1 strain 1556-1 (Y143C); conditions: virus 1556-1, Y143C; NL4-3 based, MT-4 cells; cited from earlier work
[7] = biological target: T2, recombinant HIV-1 IN (3′P); experiment: In vitro integrase catalytic gel assay, 3′ processing; format: biochemical
[8] = Compound cytotoxicity / cell viability in CEM-SS cells; format: cell-based; conditions: human
MT-4 cells = format: cell-based; conditions: human
HIV-1IIIB [9] = experiment: HIV cytoprotection; conditions: HIV-1IIIB in CEM-SS cells
[10] = biological target: T1, recombinant HIV-1 IN (ST); conditions: cited from earlier work
HIV-1NL4-3 strain K103N = experiment: Antiviral assay with NNRTI-resistant strain in MAGI R5 cells; format: cell-based; conditions: HIV-1NL4-3 K103N (NNRTI resistance)
HIV-1NL4-3 strain Y181C = experiment: as above; format: cell-based; conditions: HIV-1NL4-3 Y181C (NNRTI resistance)

SMILES: Cc1nnc(C(=O)NC(C)(C)c2nc(C(=O)NCc3ccc(F)cc3)c(O)c(=O)n2C)o1 [Compound 1, raltegravir, reference compound]
- Fold-resistance IC50(mutant)/IC50(WT) (HIV IN mutant Y143R [1]): 28

SMILES: CC(C)c1c(Cc2ccccc2)n(COCc2ccc(F)cc2)c(=O)n(O)c1=O [Compound 4, 6-Benzyl-1-((4-fluorobenzyloxy)methyl)-3-hydroxy-5-isopropylpyrimidine-2,4(1H,3H)-dione]
- fold improvement in IN inhibition over the unsubstituted compound 11 [2]: 6 fold
- IC50 [3]: > 111 µM
- TI (therapeutic index, CC50/EC50) (HIV-1IIIB [4]): >833
- EC50 (HIV-1IIIB [4]; read-out: EC50 (concentration inhibiting virus replication by 50%), dose response): 0.024 µM
- CPE Reduction (%) (HIV-1IIIB [4]; single concentration 10 μM): 100%
- Cell Viability (%) (CEM-SS cells): 100%
- Fold-resistance IC50(mutant)/IC50(WT) (HIV IN mutant Y143R [5]): 7 and 4
- Fold-resistance EC50(mutant)/EC50(WT) [6]: 5.9

SMILES: CC(C)c1c(Cc2ccccc2)n(COCc2ccccc2)c(=O)n(O)c1=O [Compound 11, 6-Benzyl-1-(benzyloxymethyl)-3-hydroxy-5-isopropylpyrimidine-2,4(1H,3H)-dione]
- IC50 [3]: > 111 µM

SMILES: CC(C)c1c(Cc2ccccc2)n(COCc2cccc(Cl)c2F)c(=O)n(O)c1=O [Compound 13, 6-Benzyl-1-((3-chloro-2-fluorobenzyloxy)methyl)-3-hydroxy-5-isopropylpyrimidine-2,4(1H,3H)-dione]
- IC50 [7]: > 111 µM
- viability at 6 days, 10 µM [8]: 100%
- TC50 (toxicity observed) (MT-4 cells): c Toxicity observed (TC50 = 2.0 μM).
- Fold-resistance IC50(mutant)/IC50(WT) (HIV IN mutant Y143R [1]): 7
- TI (therapeutic index, CC50/EC50) (HIV-1IIIB [9]): >105

SMILES: CC(C)c1c(Cc2ccccc2)n(COCc2ccccc2)c(=O)n(N)c1=O [Compound 15, 3-Amino-6-benzyl-1-(benzyloxymethyl)-5-isopropylpyrimidine-2,4(1H,3H)-dione]
- IC50 [3]: > 111 µM
- inhibitory activity against IN (in words) [10]: completely devoid of inhibitory activity

SMILES: CC(C)c1c(Cc2ccccc2)n(COCc2ccccc2)c(=O)[nH]c1=O [TNK-651]
- fold-resistance (HIV-1NL4-3 strain K103N): 22
- fold-resistance (HIV-1NL4-3 strain Y181C): 72
